Measured values: the PolyMetriX glass transition set

Structure (SMILES) | glass transition temperature [°C]
*OP(=O)(Oc1ccc(C(C)(C)c2ccc(*)cc2)cc1)Oc1c(Cl)c(Cl)c(Cl)c(Cl)c1Cl (repeat unit) | 130.00
*OP(=O)(Oc1ccc(C(C)(C)c2ccc(*)cc2)cc1)Oc1c(Cl)cccc1Cl (repeat unit) | 96.00
*OP(=O)(Oc1ccccc1)Oc1ccc(C(C)(C)c2ccc(*)cc2)cc1 (repeat unit) | 74.50
*OS(=O)(=O)c1cccc(S(=O)(=O)Oc2ccc(C(C)(C)c3ccc(*)cc3)cc2)c1 (repeat unit) | 124.00
*c1c(F)c(F)c(-c2c(F)c(F)c(Oc3ccc(-c4nn(*)c(=O)c5ccccc45)c(F)c3)c(F)c2F)c(F)c1F (repeat unit) | 253.00
*c1ccc(Oc2ccc(-c3cc(-c4ccccc4)c4cc(C5(c6ccc7nc(*)cc(-c8ccccc8)c7c6)c6ccccc6-c6ccccc65)ccc4n3)cc2)cc1 (repeat unit) | 315.00
*c1ccc(Oc2ccc(-c3cc(-c4ccccc4)c4cc5c(-c6ccccc6)cc(*)nc5cc4n3)cc2)cc1 (repeat unit) | 380.50
*c1ccc(Oc2ccc(-c3cc(-c4ccccc4)c4cc5nc(*)cc(-c6ccccc6)c5cc4n3)cc2)cc1 (repeat unit) | 365.00
*c1ccc(Oc2ccc(P(=O)(c3ccccc3)c3ccc(Oc4ccc(-c5cc(*)[nH]n5)cc4)cc3)cc2)cc1 (repeat unit) | 296.00
*c1ccc(Oc2ccc(P(=O)(c3ccccc3)c3ccc(Oc4ccc(-c5cc(*)n(-c6ccccc6)n5)cc4)cc3)cc2)cc1 (repeat unit) | 239.00
*c1cccc(P(=O)(c2ccccc2)c2cccc(N3C(=O)c4ccc(NC(=O)OCCOc5ccc(C(C)(C)c6ccc(OCCOC(=O)Nc7ccc8c(c7)C(=O)N(*)C8=O)cc6)cc5)cc4C3=O)c2)c1 (repeat unit) | 220.00
*c1cccc(P(C)(=O)c2cccc(N3C(=O)c4ccc(NC(=O)OCCOc5ccc(C(C)(C)c6ccc(OCCOC(=O)Nc7ccc8c(c7)C(=O)N(*)C8=O)cc6)cc5)cc4C3=O)c2)c1 (repeat unit) | 211.00

The next lines start with the values.

glass transition temperature [°C] | Structure (SMILES)
90.00 | *COc1ccc(C(C)(C)c2ccc(O*)cc2)cc1 (repeat unit)
171.00 | *O[Si](Oc1ccc(C2(c3ccc(*)c(C)c3)c3ccccc3-c3ccccc32)cc1C)(c1ccccc1)c1ccccc1 (repeat unit)
192.00 | *Oc1ccc(-c2ccc(-c3ccc(Oc4ccc(C(C)(C)c5ccc(*)cc5)cc4)c(C(F)(F)F)c3)cc2)cc1C(F)(F)F (repeat unit)
234.00 | *c1cc(C(c2ccc(OCCN(c3ccccc3)c3ccc(/C=C/C4=CC(=C(/C#N)S(C)(=O)=O)/CC(C)(C)C4)cc3)c(N3C(=O)c4ccc(Oc5ccc6c(c5)C(=O)N(*)C6=O)cc4C3=O)c2)(C(F)(F)F)C(F)(F)F)ccc1OCCN(c1ccccc1)c1ccc(/C=C/C2=CC(=C(/C#N)S(C)(=O)=O)/CC(C)(C)C2)cc1 (repeat unit)
316.00 | *c1ccc(Oc2cc3ccccc3cc2Oc2ccc(-n3c(=O)c4cc5c(=O)n(*)c(=O)c5cc4c3=O)cc2)cc1 (repeat unit)
305.00 | *c1ccc(Oc2ccc(-c3cc(-c4ccccc4)c4cc(-c5ccc6nc(*)cc(-c7ccccc7)c6c5)ccc4n3)cc2)cc1 (repeat unit)
334.00 | *c1ccc(Oc2ccc(-c3ccc(-c4ccc(-c5ccc(Oc6ccc(-c7c8c(c(*)c9ccccc79)C(=O)N(c7ccccc7)C8=O)cc6)c(C(F)(F)F)c5)cc4)cc3)cc2C(F)(F)F)cc1 (repeat unit)
317.00 | *c1ccc(Oc2ccc(-c3ccc(-c4ccc(Oc5ccc(-c6c7c(c(*)c8ccccc68)C(=O)N(c6ccccc6)C7=O)cc5)c(C(F)(F)F)c4)cc3)cc2C(F)(F)F)cc1 (repeat unit)
130.00 | *c1ccc(Oc2ccc(C(C)(C)c3ccc(Oc4ccc(-c5ccc(*)s5)cc4C(F)(F)F)cc3)cc2)c(C(F)(F)F)c1 (repeat unit)
